Experimental data published in paper PMC8662950, “Quantitative Determination and Toxicity Evaluation of Aristolochic Acid Analogues in Asarum heterotropoides F. Schmidt (Xixin) and Traditional Chinese Patent Medicines” (Frontiers in Pharmacology, 2021).
Where two headings read alike, the source gives them in different places.

Assays:
[1] = system: renal cells of ICR mice; assay: Comet assay (DNA damage), renal cells; format: in vivo; details: EMS 577.6 mg/kg; for Kidney Olive Tail Moment / Kidney Tail DNA%: AA analogues 20.0 mg/kg, three consecutive days, 5 animals/group, 100 cells; for DNA damage in renal cells (comet shape): AA analogues 20 mg/kg, three days
Protocol: (§1) ICR mice were separated into seven groups (n = 5 for each group) and administrated with saline, EMS (577.6 mg/kg), AA I (20 mg/kg), AA II (20 mg/kg), AA IIIa (20 mg/kg), AA IVa (20 mg/kg), or AL I (20 mg/kg) for three consecutive days, respectively. After anesthetization and perfusion, renal and liver tissues were obtained. Comet analysis was performed 2–6 h after the last […] and the processes were according to Günter Speit ([Speit and Rothfuss, 2012]). The Comet Assay software project (CASP) (V1.2.3) was used to analyze the fraction of tail DNA and the Olive Tail Moment. A total of one hundred cells from kidney or liver tissues of each animal were analyzed. The mean, standard deviation (SD) of tail DNA%, and the median of olive tail moment were calculated. Results were analyzed using SPSS 17.0 by one-way analysis of variance (ANOVA) followed by the least significance difference (LSD) test. The significant differences between the groups were tested and defined by p-value < 0.05.
(§2) Mice (n=35) were randomly divided into seven groups, with 5 mice in each group. Then they were administered with normal saline (NS), ethyl methanesulfonate (EMS) (577.6 mg/kg), and aristolochic acid analogues (20.0 mg/kg) for three days, respectively. After the final administration, mice were perfused and euthanized to obtain the renal and liver tissues.
(§3) The removed renal and liver tissues were minced into pieces and dispersed with 10 mL DMEM high-sugar culture medium. The mixture was filtered through a 200-mesh sieve and centrifuged at 800 rpm for 5 min. The supernatant was discarded and the cells were resuspended and centrifuged again. Then the cells were cultured in DMEM containing 10% FBS.
(§4) 25 μL single-cell suspension (5000 cells) with 75 μL of 0.7% low melting point agarose gel were mixed and 100 μL of the mixture was dropped on the bottom layer of agarose gel. The prepared glass slides were stored in the refrigerator at 4℃ for 4 min, and then dipped into the alkaline cell lysates for 2 h at 4℃. Slides were removed and rinsed with PBS buffer for 3 times.
(§5) The alkaline electrophoresis buffer (pH 13.0) precooled at 4℃ was put into the electrophoresis tank. The tank was covered to avoid light and remained static at 4℃ for 20 min. The voltage was set at 0.8 V/cm, and the current was 300 mA during the electrophoreses.
(§6) After 20 min, the slides were removed and the excess salt was washed away. The slides were washed by 0.4 mol/L precooled Tris-HCl buffer for 5 min and then dehydrated by ethanol for 15 min. Then the slides were stained with 30 μL PI staining solution (2 μg/mL) in the dark for 15 s, and washed in water several times.
(§7) A fluorescence microscope was used for visualization of DNA damage. A total of 100 randomly selected cells from kidney or liver tissues were analyzed. Parameters such as tail DNA percentage and Olive Tail Moment were calculated by the Comet Assay Software Project (CASP, V1.2.3).

[2] = system: HK-2 cells; assay: cells; format: cell-based, human; details: for Cell viability: HK-2, 1,000 μM, 24 or 48 h; for IC50: Homo sapiens
Protocol: Cytotoxicity analysis was determined using the Cell Counting kit 8 (CCK8) (Bioss, China). HK-2 was cultured in DMEM/F12 (containing 10% fetal bovine serum, 100 U/ml penicillin, and 100 μg/ml streptomycin; Gibco, Invitrogen) at 37°C in 5% carbon dioxide incubator. The cells were maintained at 80% confluency and the medium was replaced every 3 days for routine cultivation. HK-2 cells (8,000 cells/well) were seeded in 96-well plates overnight. The cells were then treated with analogues of AA for 24 or 48 h at different concentrations (6.8, 27.0, 54.0, 108.0, 216.0, and 432.0 μM for AA I; 12.5, 25.0, 100.0, 200.0, 400.0, and 800.0 μM for AA II; 15.6, 62.5, 125.0, 250.0, 500.0, and 1000.0 μM for AA IIIa; 15.6, 31.3, 62.5, 125.0, 500.0, and 1,000.0 μM for AA IVa; 8.0, 16.0, 32.0, 64.0, 128.0, and 256.0 μM for AL I). Subsequently, the cells were incubated with 10% CCK8 solution for another 2 h. […] The absorbance (OD) of each well was measured with a spectrophotometer (Spark; Tecan, Switzerland) at 450 nm and the IC50 values were obtained by fitting the curve through nonlinear regression with GraphPad Prism 7.0 (GraphPad Software, CA, United States).

[3] = system: ICR mice; assay: In vivo acute toxicity, single oral gavage dose, 14 days; details: for Serum AST, ALT, ALP, TBIL, TBA, CREA, BUN vs control group: single oral dose, day 14, AA I at 20 and 40 mg/kg; for Histopathology of liver tissues: AA I 20 and 40 mg/kg
Protocol: The animal experiments were approved by the Research Ethics Committee of the Institute of Chinese Materia Medica, China Academy of Chinese Medical Sciences (ICMM, CACMS). The experiment was carried out according to ethical guidelines and regulations for the use of laboratory animals. A total of 160 ICR mice were randomly divided into 16 groups, each comprising 10 mice (5 males and 5 females). The drugs were administered in a single dose by oral gavage and the dose volume was 0.2 ml/10 g. The control group was treated with 0.5% CMC-Na. Other groups received AA I, AA II, AA IIIa, AA IVa, or AL I, at concentrations of 10, 20, and 40 mg/kg, respectively. Animal weights were recorded every two days. The animals were fasted overnight before experiments and sacrificed on day 14. Blood samples were collected and centrifuged for 15 min at 3,500×g. AST, ALT, ALP, CREA, BUN, TBA, and TBIL levels in plasma were examined. SPSS 17.0 (IBM Corp., United States) was used for the statistical and significance analyses. The renal and liver tissues were embedded and stained with H&E. Histological images were obtained through Olympus BX63 (Olympus Corporation, Japan) at a magnification of ×200.

[4] = system: hepatocyte cells of ICR mice; assay: Comet assay (DNA damage), hepatocyte cells; format: in vivo; details: EMS 577.6 mg/kg; for Liver Olive Tail Moment / Liver Tail DNA%: AA analogues 20.0 mg/kg, three consecutive days, 5 animals/group, 100 cells; for DNA damage in hepatocyte cells (comet shape): AA analogues 20 mg/kg, three days
Protocol: as §1, §2, §3, §4, §5, §6, §7

[5] = 10, 20, 40 mg/kg single oral dose, 14 days
[6] = 10, 20, 40 mg/kg single oral dose, male and female mice
[7] = 10, 20 mg/kg single oral dose, 14 days

Row | Compound | Kidney Olive Tail Moment [1] [μm] | Kidney Tail DNA% [1] [%] | DNA damage in renal cells (comet shape) [1] | Cell viability [2] | Nephrotoxicity or hepatotoxicity ([3]; 40 mg/kg) | Death [3, 5] | Body weight change vs control group [3, 6] | Serum AST, ALT, ALP, TBIL, TBA, CREA, BUN vs control group [3] | Liver Olive Tail Moment [4] [μm] | Liver Tail DNA% [4] [%] | DNA damage in hepatocyte cells (comet shape) [4] | Death [3, 7] | Histopathology of liver tissues ([3]; H&E) | IC50 ([2]; HK-2, 24 h, read-out: IC50) [µM] | IC50 ([2]; HK-2, 48 h, read-out: IC50) [µM] | further results
1 | COc1cc(O)cc2c1cc([N+](=O)[O-])c1c(C(=O)O)cc3c(c12)OCO3 [AA IVa, aristolochic acid IVa] | 0.57±0.22 | 2.80±0.99 | No DNA damage | ≥ 50 % of control | No distinct nephrotoxicity or hepatotoxicity | no death | no distinct changes in body weight | no significant difference | 0.81±0.14 | 2.98±0.22 | No DNA damage | – | – | – | – | Body weight change ([3]; 40 mg/kg, female mice, day 5, returned on day 7): drastic weight loss
2 | CCOS(C)(=O)=O [EMS, ethyl methanesulfonate, reference compound] | 23.01±4.09 | 40.97±7.55 | significant comet tailing | – | – | – | – | – | 33.60±6.11 | 55.18±6.23 | significant comet tailing | – | – | – | – | –
3 | O=C(O)c1cc2c(c3c1c([N+](=O)[O-])cc1ccc(O)cc13)OCO2 [AA IIIa, aristolochic acid IIIa] | 0.61±0.16 | 2.60±0.69 | No DNA damage | ≥ 50 % of control | No distinct nephrotoxicity or hepatotoxicity | no death | no distinct changes in body weight | no significant difference | 0.92±0.20 | 3.09±0.47 | No DNA damage | – | – | – | – | –
4 | COc1cccc2c1cc([N+](=O)[O-])c1c(C(=O)O)cc3c(c12)OCO3 [AA I, aristolochic acid I] | 7.45 ± 1.94 | 15.39 ± 1.75 | evident comet shape | – | – | – | remarkable reduction of body weight | different levels of changes in serum levels of TBIL, ALP, BUN, and CREA | 0.88±0.14 | 2.92±0.54 | no DNA damage | no death | no corresponding pathological changes | – | – | IC50 ([2]; HK-2, 24 h): 197 µM; IC50 ([2]; HK-2, 48 h): 76.7 µM; Survival rate ([3]; 40 mg/kg single oral dose, 14 days, n = 10, deaths on days 4, 5 and 6): 30%; Histopathology of renal tissues ([3]; 40 mg/kg, H&E): Significant lesions
5 | COc1cccc2c1cc1c3c(cc4c(c32)OCO4)C(=O)N1 [AL I, aristolactam I] | 0.66±0.21 | 3.12±0.33 | No DNA damage | – | No distinct nephrotoxicity or hepatotoxicity | no death | no distinct changes in body weight | no significant difference | 0.74±0.29 | 3.26±0.52 | No DNA damage | – | No pathological changes | > 256 | 37.1 | Serum AST, ALT, ALP activity ([3]; 10 mg/kg): decreased AST, ALT, and ALP activity
6 | O=C(O)c1cc2c(c3c1c([N+](=O)[O-])cc1ccccc13)OCO2 [AA II, aristolochic acid II] | 0.78±0.30 | 3.08±0.25 | No DNA damage | – | No distinct nephrotoxicity or hepatotoxicity | – | – | no significant difference | 0.89±0.22 | 3.37±0.42 | No DNA damage | no death | – | > 800 | 306 | Mice died ([3]; 40 mg/kg single oral dose, n = 10, death on day 8): 10%; Body weight change ([3]; 40 mg/kg, male and female mice, first 10 days): Slight weight loss
